Among the data in patent publication US10238658B2, “1-pyrazolyl-3-(4-((2-anilinopyrimidin-4-yl) oxy) napththalen-1-yl) ureas as p38 MAP kinase inhibitors” (Respivert Limited, priority 2011, dated 2019) are inhibition, IC50 and EC50 values, retold here.

What all share (assay type): cell-based
One assay concerns HRV16. In words: HRV16 induced CPE in MRC5 cells. The following applies: Human rhinovirus sp., HRV16, MRC5, at 0.04 μg/mL; read-out: HRV CPE (MRC5) % inhibition. The method, then:
The supernatants were aspirated, and then fresh media added followed by incubation for 4 days. Where appropriate, cells were pre-incubated with compound or DMSO for 2 hr, and the compounds and DMSO added again after washout of the virus.
The percentage inhibition for each well was calculated. The IC50 value was calculated from the concentration-response curve generated by the serial dilutions of the test compounds.

In assay [1] the test system is IL-8. In words: Rhinovirus-induced IL-8 release in BEAS2B cells. The following applies: Homo sapiens, BEAS-2B, at 0.04 μg/mL; read-out: HRV IL-8 (BEAS2B) % inhibition. The method, then: Human rhinovirus RV16 was obtained from the American Type Culture Collection (Manassas, Va.). Viral stocks were generated by infecting Hela cells with HRV until 80% of the cells were cytopathic.
BEAS2B cells were infected with HRV at an MOI of 5 and incubated for 2 hr at 33° C. with gentle shaking for to promote absorption. The cells were then washed with PBS, fresh media added and the cells were incubated for a further 72 hr. The supernatant was collected for assay of IL-8 concentrations using a Duoset ELISA development kit (R&D systems, Minneapolis, Minn.). […]

In assay [2] the test system is IL-8. As to the kind of experiment: LPS-induced IL-8 release in d-U937 cells. The following applies: Homo sapiens, dU937, dU937 cells. The method, then: (§1) U937 cells, a human monocytic cell line, were differentiated into macrophage-type cells by incubation with PMA (100 ng/mL) for 48 to 72 hr. Cells were pre-incubated with final concentrations of test compound for 2 hr and were then stimulated with LPS (0.1 μg/mL; from E. Coli: O111:B4, Sigma) for 4 hr. The supernatant was collected for determination of TNFα and IL-8 concentrations by sandwich ELISA (Duo-set, R&D systems). […] The relative 50% effective concentration (REC50) was determined from the resultant concentration-response curve. The inhibition of IL-8 production was calculated at each concentration of test compound by comparison with vehicle control.

The subject of assay [3] is TNFα. In words: LPS-induced TNFα release in d-U937 cells. The following applies: Homo sapiens, dU937, dU937 cells; relative to 10 μg/mL BIRB796; read-out: LPS Induced Release TNFα REC50 (dU937). The method, then: as §1
Assay [4] deals with TNFα. In words: LPS-induced TNFα release in THP-1 cells. The following applies: Homo sapiens, THP-1, THP1 cells. How it is done:
THP-1 cells, a human monocytic cell line, were stimulated with 3 μg/mL of LPS (from E. Coli; 0111:B4, Sigma) for 4 hr and the supernatant collected for determination of the TNFα concentration by sandwich ELISA (Duo-set, R&D systems). The inhibition of TNFα production was calculated at each concentration by comparison with vehicle control.

Broadly, the inhibition is the drop in the measured response relative to a control, in per cent. In general, IC50 refers to the concentration that inhibits the measured activity by half. Turning to `Cc1ccc(-n2nc(C(C)(C)C)cc2NC(=O)Nc2ccc(Oc3ccnc(Nc4cc(C)ccc4C)n3)c3ccccc23)cc1` [Example 10, 1-(3-(tert-butyl)-1-(p-tolyl)-1H-pyrazol-5-yl)-3-(4-((2-((2,5-dimethylphenyl)amino)pyrimidin-4-yl)oxy)naphthalen-1-yl)urea], the inhibition at 0.04 µg/mL with HRV16 and in the assay with IL-8 [1] was 100% each time. Besides, the IC50 was 15 nM in the assay with IL-8 [2] and 45 nM in the assay on TNFα [4]. Further, the EC50 in the assay on TNFα [3] stood at 15 nM.
On to `Cc1ccc(-n2nc(C(C)(C)C)cc2NC(=O)Nc2ccc(Oc3ccnc(Nc4ccccc4Cl)n3)c3ccccc23)cc1` [Example 6, 1-(3-(tert-butyl)-1-(p-tolyl)-1H-pyrazol-5-yl)-3-(4-((2-((2-chlorophenyl)amino)pyrimidin-4-yl)oxy)naphthalen-1-yl)urea], for which the IC50 in the assay on IL-8 [2] was determined as 15 nM; with TNFα [4], 225 nM. Besides, the EC50 in the assay on TNFα [3] is 7 nM.
As to `COCC(=O)Nc1cc(Oc2ccc(NC(=O)Nc3cc(C(C)(C)C)nn3-c3ccc(C)cc3)c3ccccc23)ccn1` [Reference Compound, N-(4-(4-(3-(3-tert-butyl-1-p-tolyl-1H-pyrazol-5-yl)ureido)naphthalen-1-yloxy)pyridin-2-yl)-2-methoxyacetamide, reference compound], the EC50 with TNFα [3] came to 0.13 nM.
On to `Cc1ccc(Nc2nccc(Oc3ccc(NC(=O)Nc4cc(C(C)(C)C)nn4-c4ccc(C)cc4)c4ccccc34)n2)cc1` [Example 11, 1-(3-(tert-butyl)-1-(p-tolyl)-1H-pyrazol-5-yl)-3-(4-((2-(p-tolylamino)pyrimidin-4-yl)oxy)naphthalen-1-yl)urea], for which the inhibition at 0.04 µg/mL in the assay with HRV16 and in the assay with IL-8 [1] was 100% throughout. In addition, the IC50 is greater than 1680 nM in the assay on IL-8 [2] and 21 nM in the assay with TNFα [4]. For the same molecule, the EC50 in the assay on TNFα [3] was 35 nM.
On to `Cc1ccc(-n2nc(C(C)(C)C)cc2NC(=O)Nc2ccc(Oc3ccnc(Nc4ccc(O)cc4Cl)n3)c3ccccc23)cc1` [Example 31, 1-(3-(tert-butyl)-1-(p-tolyl)-1H-pyrazol-5-yl)-3-(4-((2-((2-chloro-4-hydroxyphenyl)amino)pyrimidin-4-yl)oxy)naphthalen-1-yl)urea], for which the inhibition at 0.04 µg/mL is no more than 0% in the assay with HRV16 and 100% in the assay on IL-8 [1]. For the same molecule, the IC50 in the assay on IL-8 [2] is 32 nM; in the assay with TNFα [4], 6.1 nM. Also, the EC50 with TNFα [3] came out at 16 nM.
For `COc1ccc(Nc2nccc(Oc3ccc(NC(=O)Nc4cc(C(C)(C)C)nn4-c4ccc(C)cc4)c4ccccc34)n2)cc1Cl` [Example 28, 1-(3-(tert-butyl)-1-(p-tolyl)-1H-pyrazol-5-yl)-3-(4-((2-((3-chloro-4-methoxyphenyl)amino)pyrimidin-4-yl)oxy)naphthalen-1-yl)urea], in that order: 54%, 100%, 18 nM, 0.4 nM and 14 nM.
For `Cc1ccc(-n2nc(C(C)(C)C)cc2NC(=O)Nc2ccc(Oc3ccnc(Nc4ccccc4F)n3)c3ccccc23)cc1` [Example 4, 1-(3-(tert-butyl)-1-(p-tolyl)-1H-pyrazol-5-yl)-3-(4-((2-((2-fluorophenyl)amino)pyrimidin-4-yl)oxy)naphthalen-1-yl)urea], in that order: 44%, 100%, 2.3 nM, 4.6 nM and 3.1 nM.
For `Cc1ccc(-n2nc(C(C)(C)C)cc2NC(=O)Nc2ccc(Oc3ccnc(Nc4ccc(O)cc4F)n3)c3ccccc23)cc1` [Example 30, 1-(3-(tert-butyl)-1-(p-tolyl)-1H-pyrazol-5-yl)-3-(4-((2-((2-fluoro-4-hydroxyphenyl)amino)pyrimidin-4-yl)oxy)naphthalen-1-yl)urea], in that order: no more than 0%, 100%, 3 nM, 1.6 nM and 1 nM.
For `COc1ccc(Nc2nccc(Oc3ccc(NC(=O)Nc4cc(C(C)(C)C)nn4-c4ccc(C)cc4)c4ccccc34)n2)cc1` [Example 17, 1-(3-(tert-butyl)-1-(p-tolyl)-1H-pyrazol-5-yl)-3-(4-((2-((4-methoxyphenyl)amino)pyrimidin-4-yl)oxy)naphthalen-1-yl)urea], the inhibition at 0.04 µg/mL was no more than 0% with HRV16 and 100% in the assay on IL-8 [1]. Moreover, the IC50 with IL-8 [2] was 2.1 nM; in the assay on TNFα [4], 4.3 nM. The EC50 in the assay with TNFα [3] was 2 nM.
Taken in the same sequence, the figures for `Cc1ccc(-n2nc(C(C)(C)C)cc2NC(=O)Nc2ccc(Oc3ccnc(Nc4cccc(F)c4)n3)c3ccccc23)cc1` [Example 15, 1-(3-(tert-butyl)-1-(p-tolyl)-1H-pyrazol-5-yl)-3-(4-((2-((3-fluorophenyl)amino)pyrimidin-4-yl)oxy)naphthalen-1-yl)urea] were 100%, 100%, 2.3 nM, 3 nM and 2.2 nM.
Taken in the same sequence, the figures for `Cc1ccc(-n2nc(C(C)(C)C)cc2NC(=O)Nc2ccc(Oc3ccnc(Nc4cccc(Cl)c4)n3)c3ccccc23)cc1` [Example 13, 1-(3-(tert-butyl)-1-(p-tolyl)-1H-pyrazol-5-yl)-3-(4-((2-((3-chlorophenyl)amino)pyrimidin-4-yl)oxy)naphthalen-1-yl)urea] were 100%, 100%, greater than 1620 nM, 1600 nM and greater than 1620 nM.
For `Cc1ccc(-n2nc(C(C)(C)C)cc2NC(=O)Nc2ccc(Oc3ccnc(Nc4ccccc4C(C)C)n3)c3ccccc23)cc1` [Example 20, 1-(3-(tert-butyl)-1-(p-tolyl)-1H-pyrazol-5-yl)-3-(4-((2-((2-isopropylphenyl)amino)pyrimidin-4-yl)oxy)naphthalen-1-yl)urea], in that order: no more than 0%, 100%, 23 nM, 121 nM and 18 nM.
On to `Cc1ccc(-n2nc(C(C)(C)C)cc2NC(=O)Nc2ccc(Oc3ccnc(Nc4cccc(C)c4)n3)c3ccccc23)cc1` [Example 12, 1-(3-(tert-butyl)-1-(p-tolyl)-1H-pyrazol-5-yl)-3-(4-((2-(m-tolylamino)pyrimidin-4-yl)oxy)naphthalen-1-yl)urea], for which the inhibition at 0.04 µg/mL in the assay on HRV16 and with IL-8 [1] was 100% each time. The IC50 in the assay on IL-8 [2] was 2.4 nM; with TNFα [4], 30 nM. Moreover, in the assay with TNFα [3], the EC50 turned out to be 2 nM.
For `COc1cccc(Nc2nccc(Oc3ccc(NC(=O)Nc4cc(C(C)(C)C)nn4-c4ccc(C)cc4)c4ccccc34)n2)c1` [Example 14, 1-(3-(tert-butyl)-1-(p-tolyl)-1H-pyrazol-5-yl)-3-(4-((2-((3-methoxyphenyl)amino)pyrimidin-4-yl)oxy)naphthalen-1-yl)urea], the inhibition at 0.04 µg/mL in the assay with HRV16 and in the assay with IL-8 [1] was 100% throughout. Also, the 50% inhibitory concentration (IC50) with IL-8 [2] is 1.6 nM; with TNFα [4], 2.7 nM. Also, in the assay on TNFα [3], the EC50 was determined as 2 nM.
